# Read-outs that look alike come from different tables or passages of the source.
# Experiments:
# SERCA = molecular target: T1, SERCA (Sus scrofa, UniProt P11607); assay: Enzyme-coupled, NADH-linked SERCA ATPase assay in pig cardiac SR; assay type: biochemical; parameters: inhibition of ATPase activity: dose or concentration left out as unconfirmed
# T1 construct: Cardiac sarcoplasmic reticulum (SR) vesicles were prepared from the ventricular tissue of swine hearts; from tissue; host or cells: ventricular tissue of swine hearts (cardiac SR vesicles)
# T1 sequence (P11607 1-997 isoform P11607-2): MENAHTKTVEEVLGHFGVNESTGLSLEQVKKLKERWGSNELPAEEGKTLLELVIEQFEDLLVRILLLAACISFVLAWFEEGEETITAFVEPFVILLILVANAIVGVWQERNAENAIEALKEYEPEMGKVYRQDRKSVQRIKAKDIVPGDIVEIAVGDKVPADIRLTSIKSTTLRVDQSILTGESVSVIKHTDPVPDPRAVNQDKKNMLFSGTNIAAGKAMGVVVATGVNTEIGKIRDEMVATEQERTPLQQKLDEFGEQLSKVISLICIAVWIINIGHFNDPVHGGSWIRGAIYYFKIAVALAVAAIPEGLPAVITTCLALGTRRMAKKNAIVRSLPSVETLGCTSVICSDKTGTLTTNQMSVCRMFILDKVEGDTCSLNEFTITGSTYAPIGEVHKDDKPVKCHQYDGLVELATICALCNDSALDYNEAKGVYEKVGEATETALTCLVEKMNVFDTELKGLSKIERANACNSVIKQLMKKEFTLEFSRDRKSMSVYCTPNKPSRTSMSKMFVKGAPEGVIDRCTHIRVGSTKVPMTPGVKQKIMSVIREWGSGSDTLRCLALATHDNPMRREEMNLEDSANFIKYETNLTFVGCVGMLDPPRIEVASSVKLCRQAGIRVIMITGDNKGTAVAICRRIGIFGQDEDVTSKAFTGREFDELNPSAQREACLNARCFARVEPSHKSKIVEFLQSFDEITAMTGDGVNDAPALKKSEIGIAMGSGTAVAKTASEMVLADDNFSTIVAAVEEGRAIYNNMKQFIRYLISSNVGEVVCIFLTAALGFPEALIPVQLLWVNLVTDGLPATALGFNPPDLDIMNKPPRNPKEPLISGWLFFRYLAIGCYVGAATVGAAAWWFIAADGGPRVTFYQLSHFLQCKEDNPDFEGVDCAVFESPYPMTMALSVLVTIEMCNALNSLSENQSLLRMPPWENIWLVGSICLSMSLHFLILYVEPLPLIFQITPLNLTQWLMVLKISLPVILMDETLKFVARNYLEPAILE
# Protocol: An enzyme-coupled, NADH-linked ATPase assay was used to measure SERCA ATPase activity (Stergiopoulos et al., BMC Health Serv Res 2012, 12, 345). in 96-well microplates. Each well contained 50 mM MOPS (pH 7.0), 100 mM KCl, 5 mM MgCl2, 1 mM EGTA, 0.2 mM NADH, 1 mM phosphoenol pyruvate, 10 IU/mL of pyruvate kinase, 10 IU/mL of lactate dehydrogenase, 3.5 μg/mL of the calcium ionophore A23187, and CaCl2 added to set free [Ca^2+] to the desired values. (Mueller et al., Biochemistry 2004, 43, 8754-8765). 2.5 μg of cardiac SR or 25 μg of HEK cell homogenate were used in each well to correct for the difference in SERCA content. The assay was started upon the addition of ATP at a final concentration of 5 mM and read in a SpectraMax Plus microplate spectrophotometer (Molecular Devices, Sunnyvale, Calif.), bring the total volume to 200 μL. Results were normalized to SERCA content determined from immunoblotting.
# Effects of known activators and LOPAC hits on SERCA ATPase activity was evaluated in pig cardiac SR. Compounds were dissolved in DMSO, and adjusted to […] the concentrations used in the final assay wells. 4 μL prediluted compounds were added to each well to keep the final [DMSO] at 2% (v/v).
# 2-color SERCA2a (2CS) = molecular target: T2, 2-color SERCA2a (2CS) (Canis lupus familiaris, UniProt O46674, INS508[…]); assay: Live-cell 2-color SERCA (2CS) FRET assay in fluorescence lifetime plate reader; assay type: cell-based, canine; conditions: for LOPAC library screen outcome (2CS GFP lifetime outside 3SD window): hit = lifetime change more than 3 SD from DMSO controls, repeated
# T2 construct: expressed in transfected cells
# Text: Using recombinant DNA technology, the gene for TagRFP was fused to the N-terminus of canine SERCA2a. This fusion position is in the A-domain of the pump. EGFP was fused as an intrasequence tag before residue 509 in the N-domain. The structural model presented in FIG. 1A corresponds to the isoform SERCA1a, which is 84% homologous to SERCA2a. Hou et al. evaluated several intrasequence fusion positions chosen using x-ray crystal structures of SERCA1a to identify unstructured loops and predict large relative distance changes without affecting SERCA function. (Hou et al., PLoS ONE 2012, 7, e40369). The 509 site was chosen because the labeled construct had normal SERCA activity and its intramolecular FRET signal was sensitive to SERCA structural state, as shown below.
# (§1) The 96-well plate format LOPAC library was reformatted into four 384-well polystyrene mother plates (Corning, Corning, N.Y.) using a Biomek FX liquid handler (Beckman Coulter, Brea, Calif.), and diluted to 500 μM using DMSO. Column 1, 22, 23 and 24 were loaded with DMSO for in-plate no-compound controls. The LOPAC compounds were distributed in column 2 through 21. Each plate contains 64 wells of DMSO controls, and 320 wells of compounds from the LOPAC library. Black well, high-quality-glass bottom Greiner 384-well microplates (PN 781892) were selected as the assay plates for their optical clarity, low autofluorescence, and low inter-well cross-talks. Compounds (1 μL) were transferred from the mother plates into assay plates using a Mosquito HV liquid handler (TTP Labtech Ltd, UK). The plates were sealed and stored at −20° C. until use. On the day of screening, the plates were equilibrated to room temperature (25° C.). Stable GFP-SERCA2a (donor only control) or 2CS cells were lifted from a 225 cm^2 flask by incubating with TrypLE (Invitrogen) for 5 min. Cells were collected and pelleted for 5 min at 500 g and resuspended in 10 mL PBS, then analyzed on a Countess cell counter (Invitrogen) and diluted to 1×10^6 cells/mL. 49 μL Cells were plated on top of the compounds by a FlexDrop IV reagent dispenser (PerkinElmer, Waltham, Mass.). Assay plates were spun for 1 min at 200 g and allowed to incubate at RT for 20 min before reading on a fluorescence lifetime plate reader (constructed in collaboration with Fluorescence Innovations, Inc., Minneapolis, Minn.). GFP fluorescence was excited with a 473 nm microchip laser from Concepts Research Corporation (Belgium, Wis.) and emission was filtered with 490 nm long pass and 520/35 nm band pass filters from Semrock (Rochester, N.Y.).
# Time-resolved fluorescence waveforms for each well were fitted to single-exponential decays using global analysis software. Each plate contained 64 control wells with only DMSO, and a hit was defined as a compound that changed the 2CS donor lifetime by more than three times the standard deviation (SD) relative to the controls. Fluorescent compounds that caused the intensity of both untransfected HEK cells and 2CS cells to be more than 3SD outside the mean of the 64 controls on a plate were excluded from the hits as likely false positives.
# Plasmodium falciparum = conditions: cited from earlier work
# [1] = test system: Ca2+ uptake into microsomes; conditions: cited from earlier work
# GFP-SERCA2a = assay: Donor-only control: GFP lifetime in GFP-SERCA2a cells; assay type: cell-based, canine
# Protocol: as §1, with “Compounds (1 μL) were transferred from the mother plates into assay plates using a Mosquito HV liquid handler (TTP Labtech Ltd, UK). The plates were sealed and stored at −20° C. until use. On the day of screening, the plates were equilibrated to room temperature (25° C.). Stable GFP-SERCA2a (donor only control) or 2CS cells were lifted from a 225 cm^2 flask by incubating with TrypLE (Invitrogen) for 5 min.” left out, “49 μL Cells were plated on top of the compounds by a FlexDrop IV reagent dispenser (PerkinElmer, Waltham, Mass.).” left out
# Time-resolved fluorescence waveforms for each well were fitted to single-exponential decays using global analysis software. […]
smiles,measurement,setting,value
Cc1ccc2cccc(NC(=O)c3ccc(OC(C)C)cc3)c2n1 [CDN1163],mode of SERCA activation,SERCA,increasing the activity at saturating [Ca^2+]
same,effect on FRET between GFP and RFP in 2CS,"2-color SERCA2a (2CS); dose-response, live cells",reduce FRET
"CC(=O)C1=C(O)[C@@H]2[C@H]3c4c[nH]c5cccc(c45)C[C@H]3C(C)(C)N2C1=O [CPA, cyclopiazonic acid]",Kd,SERCA,~40 nM
"[Cl-].c1ccc2c(c1)[I+]c1ccccc1-2 [DPI, diphenyline iodonium chloride]",IC50 for inhibition of parasite growth,Plasmodium falciparum,submicromolar
same,inhibition of ATPase activity,SERCA,< 50%
same,functional (ATPase) inhibition,SERCA; below 10 μM,very little functional inhibition
same,inhibition of Ca2+ uptake into microsomes,[1]; 30 µM,18%
same,inhibition of Ca2+ uptake into microsomes,[1]; 100 µM,32%
same,FRET efficiency at maximal effect,2-color SERCA2a (2CS); basal FRET 0.12,0.10
same,LOPAC library screen outcome (2CS GFP lifetime outside 3SD window),2-color SERCA2a (2CS),reproducible hits
same,maximal reduction of FRET,2-color SERCA2a (2CS); maximal effect in dose-response,~18%
"C/C=C(/C)C(=O)O[C@H]1C(C)=C2[C@H]([C@@H]1OC(=O)CCCCCCC)[C@@](C)(OC(C)=O)C[C@H](OC(=O)CCC)[C@@]1(O)[C@H]2OC(=O)[C@@]1(C)O [TG, thapsigargin]",ATPase activity,SERCA; at 7.5 nM,nearly ablated
same,effect on ATPase activity at the highest concentrations tested,SERCA,completely inhibit ATPase activity
same,reduction of FRET,2-color SERCA2a (2CS); at 7.5 nM,~33%
same,LOPAC library screen outcome (2CS GFP lifetime outside 3SD window),2-color SERCA2a (2CS),reproducible hits
COc1cc(/C=C(\C#N)C(=O)Nc2nnc(C(F)(F)F)s2)ccc1OCc1ccc(C(F)(F)F)cc1C(F)(F)F [XCT 790],effect on ATPase activity at the highest concentrations tested,SERCA,completely inhibit ATPase activity
same,effect on the lifetime of GFP-SERCA2a alone,GFP-SERCA2a,no effect
same,reduction of FRET,"2-color SERCA2a (2CS); dose-response assay, concentration not given",~42%
same,LOPAC library screen outcome (2CS GFP lifetime outside 3SD window),2-color SERCA2a (2CS),reproducible hits
